How the values were obtained:
[1] = test system: ST2 cells, murine bone marrow-derived stromal cells; assay: Osteoblast differentiation test (alkaline phosphatase activity); assay type: cell-based; settings: Mus musculus, ST-2, 96 h, at 0.03 μg/mL, four days of culturing, control group (0.1% DMSO) set at 100%, read-out: increase (%) in alkaline phosphatase activity
Method: ST2 cells, murine bone marrow-derived stromal cells, (obtained from RIKEN) were used.
In this test, α-MEM media (obtained from GIBCO BRL Cat. No. 10370-021) containing 10% (v/v) of inactivated calf serum (obtained from Hyclone Laboratories, Inc.) and 1% (v/v) of Penicillin-Streptomycin Liquid (obtained from GIBCO BRL Cat. No. 15140-122) (hereinbelow, abbreviated as 10%-FBS-αMEM) were used. In this test, all culturing was performed in a CO2 incubator (37° C., 95% humidity, 5% CO2).
The aforementioned cells were detached with 2 mL of a 0.25% trypsin solution (obtained from GIBCO BRL Cat. No. 15050-065) and dispersed in 10 mL of 10%-FBS-αMEM. Subsequently, the cells were collected by centrifugation (25° C., 800 rpm, five minutes). Then, a cell suspension containing 40000 of the cells/mL of 10%-FBS-αMEM was prepared. The cell suspension was then dispensed into 96-well plates (the product of Falcon), 100 μL per well, at a density of 4000 cells/well, followed by culturing for 24 hours. To the wells except for the below-described well containing a control group, the compound was dispensed at final concentrations of 0.01, 0.03, 0.1, and 0.3 μg/ml. To the well of a control group, DMSO was dispensed at a final concentration of 0.1% (v/v). After four days of culturing, the activity of alkaline phosphatase (ALP) was measured in each group.
The measurement of ALP activity was performed as follows. That is, the medium in each well of the culture plates was completely removed. Each well was then washed by dispensing 100 μL of Dulbecco's phosphate buffer (obtained from GIBCO BRL Cat. No. 14190-144) and then removing it. A cell lysate solution containing 10 mM MgCl2 and 2% (v/v) TritonX-100 (Sigma) was prepared and dispensed at 50 μL/well, followed by stirring at room temperature for five minutes. An ALP substrate solution containing 50 mM diethanolamine (Wako pure chemical industries, Ltd., Cat. No. 099-03112) and 20 mM p-nitrophenyl phosphate (Wako pure chemical industries, Ltd., Cat. No. 147-02343) was prepared and dispensed at 50 μL/well, and the plates were left to stand at room temperature for 10 minutes. Subsequently, absorbance was measured by a microplate reader (Bio-Rad Laboratories, Inc.). Setting the measurement value of the control group of each plate at 100%, the increase (%) in alkaline phosphatase activity in the test compound-addition group was calculated, which was assessed as the degree of osteoblast differentiation.

female F344 rats = assay: Effect on bone density (oophorectomy or sham surgery, femur DXA); assay type: in vivo; settings: 3 mg/kg, orally once a day, six days a week, six to eight weeks, female F344 rats after oophorectomy or sham surgery
Method: Eight to 12 week old female F344 rats were purchased from Charles River Laboratories and used in the following experiment. Rats were anesthetized with an intraperitoneal administration of 40 mg/kg of Somnopentyl (Kyoritsu Seiyaku Corporation), and then oophorectomy or sham surgery was performed. From the day after surgery, a suspension of the test compound in a 0.5% methyl cellulose solution (Wako pure chemical industries, Ltd. Cat. No. 133-14255) was orally administered once a day, six days a week. Six to eight weeks after administration, the rats were euthanized by removal of whole blood from the lower abdominal aorta under Somnopentyl anesthesia, and the left and right femur was excised.
After removal of soft tissues, the bone density of the femur thus excised was measured by a DXA apparatus, DCS-600R (Aloka Co., Ltd.). The bone density was assessed in the whole femur as well as in three equal sections of the whole femur, namely the proximal end, the shaft, and the distal end.

| SMILES | activity at 0.03 µg/mL [1] [%] | bone density of the femur (female F344 rats) |
| --- | --- | --- |
| NC(=O)c1ccc2cncc(N3CCC(OCCO[C@H]4CCOC4)CC3)c2n1 [Example 4, 8-(4-{2-[(3S)-Tetrahydrofuran-3-yloxy]ethoxy}piperidin-1-yl)-1,6-naphthyridine-2-carboxamide] | ≥ 200 | significantly increased |
| NC(=O)c1ccc2cncc(N3CCCCC3)c2n1 [Example 12, 8-Piperidin-1-yl-1,6-naphthyridine-2-carboxamide] | ≥ 200 | significantly increased |
| NC(=O)c1ccc2cncc(N3CCN(c4ccccc4)CC3)c2c1 [Example 15, 4-(4-Phenylpiperazin-1-yl)isoquinoline-6-carboxamide] | ≥ 200 | significantly increased |
| NC(=O)c1ccc2cncc(N3CCC(OCCO[C@@H]4CCOC4)CC3)c2n1 [Example 3, 8-(4-{2-[(3R)-Tetrahydrofuran-3-yloxy]ethoxy}piperidin-1-yl)-1,6-naphthyridine-2-carboxamide] | ≥ 200 | significantly increased |
| Cl.NC(=O)c1ccc2cncc(N3CCC(OCCOC4CCOCC4)CC3)c2n1 [Example 7, 8-{4-[2-(Tetrahydro-2H-pyran-4-yloxy)ethoxy]piperidin-1-yl}-1,6-naphthyridine-2-carboxamide hydrochloride] |  | significantly increased |
